Target: T1, OR7C1 (Homo sapiens, UniProt O76099)
T1 construct: transfected with a plasmid containing the CRE-luciferase and a plasmid containing the olfactory receptor; expressed in transfected cells; host or cells: HEK293T-RTP1A1/RTP2 (HEK293T stably expressing the chaperones RTP1A1 and RTP2)
T1 sequence (O76099 1-320): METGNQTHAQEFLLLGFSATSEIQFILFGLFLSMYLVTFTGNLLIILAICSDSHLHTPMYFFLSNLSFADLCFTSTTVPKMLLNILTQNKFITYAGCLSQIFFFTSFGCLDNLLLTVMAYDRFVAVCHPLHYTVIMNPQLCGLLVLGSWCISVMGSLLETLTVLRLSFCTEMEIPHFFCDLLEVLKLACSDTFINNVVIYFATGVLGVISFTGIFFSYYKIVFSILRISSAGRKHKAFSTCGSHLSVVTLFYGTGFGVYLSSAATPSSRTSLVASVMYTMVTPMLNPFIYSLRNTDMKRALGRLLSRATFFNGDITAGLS
Assay: Luciferase-based CRE gene reporter assay, dose-response on OR7C1
Assay type: cell-based
Conditions: negative logarithm of the EC50 in Moles; semi-logarithmic dilutions from 1 mM to 316 nM on OR7C1
Method: HEK293T-RTP1A1/RTP2 cells were maintained in minimal essential medium (EMEM, Lonza) containing 10% fetal bovine serum (M10). These cells were generated by transfecting HEK293T (Thermofisher Scientific, cat ref: R70007) with an expression vector containing the sequences of the chaperone proteins RTP1A1 and RTP2 and a resistance gene to puromycin, using Lipofectamine 2000. The recombinant cell population, used in these experiments, was selected by adding 10 μg/ml of puromycin into the culture medium and subsequently subcloned (WO 2014/191047 A1).
Potential OR7C1 agonists were diluted at a concentration of 1 mole/liter (M) into an organic solvent such as Dimethyl Sulfoxide (DMSO) or Ethanol to generate stock solutions. […]
For concentration-response analysis, serial dilutions of the tested molecules were prepared from stock solutions in EMEM plated into 96-well plates.
For the dose-response analysis, a Luciferase-based gene reporter assay (Promega, Leiden, the Netherlands) was used. Briefly, cells were platted on poly-D-lysine-coated 96-well plates and transfected with a plasmid containing the CRE-luciferase and a plasmid containing the olfactory receptor. Sixteen hours after transfection, the culture medium was replaced by serum-free EMEM containing the tested compounds at a determined concentration. After four hours of incubation at 37° C., cells were lysed and processed for luminescence measurement. Luminescence emission was recorded. Results were expressed as luciferase activity ([…] (RLU)) or as percentage of the response induced by 10 μM of the adenylate cyclase activator Forskolin. An empty plasmid is used as negative control.
Dose-response analyses using the luciferase-based reporter assay were performed using semi-logarithmic serial dilutions of the compounds, from 1 mM to 316 nM, on OR7C1. 46 compounds were tested in concentration-response analyses. In each experiment, an empty vector (pEFIBRHO) was used as negative control. Values are given as the negative logarithm of the EC50 in Moles.

- -LogEC50 (average n > 3): > 8
Substance: Ambermax [Compound 16]

From US20240058240A1, “COMPOUNDS AS SELF-TANNING SUBSTANCES AND TANNING COMPOSITIONS THEREOF” (CHEMCOM S.A., priority 2020, published 2024)
